Holding throughout (type): cell-based
In test [1] the test system is Wnt activity (Sp5-Luc reporter, SW480 colon carcinoma cells). Nature of the test: Wnt activity screening assay, Sp5-Luc reporter gene in SW480 cells. The following applies: Homo sapiens; for inhibition at 10 µM: SW480, read-out: percent inhibition at 10 μM; for EC50: Sp5-Luc reporter, SW480 cells, overnight incubation. From the text:
The screening assay for Wnt activity is described as follows. Reporter cell lines can be generated by stably transducing cancer cell lines (e.g., colon cancer) or primary cells (e.g., IEC-6 intestinal cells) with a lentiviral construct that includes a Wnt-responsive promoter driving expression of the firefly luciferase gene.
SW480 colon carcinoma cells were transduced with a lentiviral vector expressing luciferase with a human Sp5 promoter consisting of a sequence of eight TCF/LEF binding sites. SW480 cells stably expressing the Sp5-Luc reporter gene and a hygromycin resistance gene were selected by treatment with 150 μg/mL of hygromycin for 7 days. These stably transduced SW480 cells were expanded in cell culture and used for all further screening activities. […] For Sp5-Luc reporter gene assays, the cells were plated at 4,000 cells/well in 384-well plates with medium containing 1% fetal bovine serum and incubated overnight at 37° C. and 5% CO2. Following incubation, 20 μl of BrightGlo luminescence reagent (Promega) was added to each well of the 384-well assay plates. The plates were placed on an orbital shaker for 2 min and then luminescence was quantified using the Envision (Perkin Elmer) plate reader. Readings were normalized to DMSO only treated cells, and normalized activities were utilized for EC50 calculations using the dose-response log (inhibitor) vs. response -variable slope (four parameters) nonlinear regression feature available in GraphPad Prism 5.0 (or Dotmatics).
Background: In a reporter assay the amount or activity of a reporter protein is the signal.

In a further test the test system is SW480 colon cancer cells. Briefly: Cell viability assay (CellTiter-Blue), SW480 cells, four days. The following applies: Homo sapiens; for EC50: 96 h, SW480 cell viability, four days, CellTiter-Blue; for inhibition at 10 µM: SW480, read-out: percent inhibition at 10 μM. The method, then: Representative compounds were screened using the following assay procedure to assess the effect on cell viability as described below.
Approximately 2×10^3 SW480 colon cancer cells were seeded into each well and allowed to incubate in the presence or absence of compound for four days at 37° C./5% CO2. Eight replicates of DMSO-treated cells served as controls and cells treated with compound were performed in duplicate.
After incubation, 20 μL of CellTiter-Blue (Promega) was added to each well allowed to incubate for approximately 3 hours. This reagent was a buffered solution which contains resazurin, metabolically active cells were able to reduce rezarurin (blue) into resorufin (pink) which was highly fluorescent. This measured fluorescence was used as a readout for cell viability.

The test system of test [2] is primary human fibroblasts derived from IPF patients (LL29 cells) treated with TGF-β1. Nature of the test: Inhibition of the fibrotic process: αSMA staining in TGF-β1 treated LL29 fibroblasts. As to conditions: Fibroblast; for EC50: 96 h, LL29 cells, TGF-β1 20 ng/mL, 4 days, % αSMA positive cells; for inhibition at 10 µM: read-out: percent inhibition at 10 μM. The method, then: Representative compounds were screened using primary human fibroblasts (derived from IPF patients) treated with TGF-β1 to determine their ability to inhibit the fibrotic process.
LL29 cells are plated at 1,500 cells/well in 80 μL/well F12 medium supplemented with 1% Fetal Bovine Serum. […] Wells treated with TGF-β1 and containing DMSO were used as controls. […] Following incubation for 4 days, SYTOX green nucleic acid stain (Life Technologies [Thermo Fisher Scientific]) was added to the wells at a final concentration of 1 μM and incubated at room temperature for 30 min.

Test [3] concerns IL-6 (THP-1 human monocyte cell line). Briefly: IL-6 inhibition in LPS-stimulated THP-1 cells (HTRF). As to conditions: for EC50: IL-6 inhibition, LPS-stimulated THP-1 cells, HTRF; for inhibition at 10 µM: THP-1, read-out: percentage in parentheses beside EC50 >10 (IL-6 inhibition). The method, then: THP-1 cells were cultured in basal media with 1% FBS for 24 hours before the start of the assay. […] THP-1 cells were plated at 5000 cells/well in the 384-well plates and incubated at 37° C. for 2 h. 500 ng/mL of LPS was added after 2 hours and cells were incubated for another 22 hours at 37° C. Plates were spun in a centrifuge for 1 minute at […] and a mixture of anti-IL6 XL665, and anti-IL6 Cryptate diluted in reconstitution buffer (Cisbio Inc.) was added to each well. Following incubation for 3 hrs at room temperature, Homogeneous Time-Resolved Fluorescence (HTRF) was measured using the Envision (Perkin Elmer) at 665 nm and […]. The ratio of fluorescence at 665 nm to 620 nm was used as a readout for IL6 quantification. All samples were processed in duplicate. Readings were normalized to DMSO treated cells and normalized activities were utilized for EC50 calculations using the dose-response log (inhibitor) vs. response -variable slope (four parameters) nonlinear regression feature available in GraphPad Prism 5.0 (or Dotmatics).

The structures appear in SMILES notation.

For orientation: inhibition means how much of the control response was suppressed. By EC50 is commonly meant the concentration that produces a half-maximal response. A high value points to lower potency in that assay. Take `Fc1cccc(-c2ccnc3[nH]c(-c4n[nH]c5ccc(-c6ccncc6)cc45)cc23)c1` [Compound 18, 3-(4-(3-Fluorophenyl)-1H-pyrrolo[2,3-b]pyridin-2-yl)-5-(pyridin-4-yl)-1H-indazole]: the inhibition at 10 µM was determined as 18% in test [1], 16.2% in the test on SW480 colon cancer cells and 33.6% in test [2]. For the same compound, the EC50 in test [1] was greater than 10 µM; with SW480 colon cancer cells, greater than 10 µM; in test [2], greater than 10 µM; in test [3] it was 0.995 µM.
For the compound `O=C(Nc1cncc(-c2ccc3[nH]nc(-c4cc5c(-c6cccc(F)c6)ccnc5[nH]4)c3c2)c1)C1CC1` [Compound 20, N-(5-(3-(4-(3-Fluorophenyl)-1H-pyrrolo[2,3-b]pyridin-2-yl)-1H-indazol-5-yl)pyridin-3-yl)cyclopropanecarboxamide], the concentration giving a half-maximal response (EC50) was 0.035 µM in test [1], 1.06 µM in the test on SW480 colon cancer cells, 7.73 µM in test [2] and greater than 10 µM in test [3]. Moreover, the inhibition at 10 µM in test [3] was 34.5%.
On to `Fc1cccc(-c2ccnc3[nH]c(-c4n[nH]c5ccc(-c6cncc(CN7CCC(F)(F)C7)c6)cc45)cc23)c1` [Compound 26, 5-(5-((3,3-Difluoropyrrolidin-1-yl)methyl)pyridin-3-yl)-3-(4-(3-fluorophenyl)-1H-pyrrolo[2,3-b]pyridin-2-yl)-1H-indazole], for which the results for the inhibition at 10 µM (in test [1]; with SW480 colon cancer cells) were 49% and 40.6%, respectively. Besides, the EC50 in test [1] is greater than 10 µM; with SW480 colon cancer cells it was greater than 10 µM; in test [2] it was 1.96 µM; in test [3], 0.285 µM.
`Fc1cccc(-c2ccnc3[nH]c(-c4n[nH]c5ccc(-c6ccccn6)cc45)cc23)c1` [Compound 28, 3-(4-(3-Fluorophenyl)-1H-pyrrolo[2,3-b]pyridin-2-yl)-5-(pyridin-2-yl)-1H-indazole]: the inhibition at 10 µM in test [1] is 8.5%; with SW480 colon cancer cells, 12.9%; in test [2], 12%; in test [3], 21%. Besides, the EC50 (in test [1]; in the test with SW480 colon cancer cells; in test [2]; in test [3]) was greater than 10 µM throughout.
As for `CC(C)CC(=O)Nc1cncc(-c2ccc3[nH]nc(-c4cc5c(-c6ccc(F)cc6)ccnc5[nH]4)c3c2)c1` [Compound 30, N-(5-(3-(4-(4-Fluorophenyl)-1H-pyrrolo[2,3-b]pyridin-2-yl)-1H-indazol-5-yl)pyridin-3-yl)-3-methylbutanamide], the inhibition at 10 µM was determined as 13.6% in test [1], 14.9% in the test with SW480 colon cancer cells, 20.2% in test [2] and 25.3% in test [3]. Besides, the EC50 (in test [1]; in the test with SW480 colon cancer cells; in test [2]; in test [3]) was greater than 10 µM throughout.
Take `CC(C)(C)C(=O)Nc1cncc(-c2ccc3[nH]nc(-c4cc5c(-c6ccc(F)cc6)ccnc5[nH]4)c3c2)c1` [Compound 36, N-(5-(3-(4-(4-Fluorophenyl)-1H-pyrrolo[2,3-b]pyridin-2-yl)-1H-indazol-5-yl)pyridin-3-yl)pivalamide]: the inhibition at 10 µM in test [1] is 11.7%; in the test on SW480 colon cancer cells it was 33.1%; in test [2] it was 0%; in test [3], 19.3%. In addition, the EC50 (in test [1]; with SW480 colon cancer cells; in test [2]; in test [3]) was greater than 10 µM in each case.
Turning to `O=C(Nc1cncc(-c2ccc3[nH]nc(-c4cc5c(-c6ccc(F)cc6)ccnc5[nH]4)c3c2)c1)c1ccccc1` [Compound 39, N-(5-(3-(4-(4-Fluorophenyl)-1H-pyrrolo[2,3-b]pyridin-2-yl)-1H-indazol-5-yl)pyridin-3-yl)benzamide], the inhibition at 10 µM was 0% in test [1], 24.2% with SW480 colon cancer cells and 28.4% in test [3]. Besides, the EC50 is greater than 10 µM in test [1], greater than 10 µM with SW480 colon cancer cells, 4.88 µM in test [2] and greater than 10 µM in test [3].
For the compound `CCCC(=O)Nc1cncc(-c2ccc3[nH]nc(-c4cc5c(-c6ccc(F)cc6)ccnc5[nH]4)c3c2)c1` [Compound 45, N-(5-(3-(4-(4-Fluorophenyl)-1H-pyrrolo[2,3-b]pyridin-2-yl)-1H-indazol-5-yl)pyridin-3-yl)butyramide], the inhibition at 10 µM in test [1] was determined as 11%; with SW480 colon cancer cells, 30.7%; in test [3] it was 25.8%. Further, the EC50 in test [1] is greater than 10 µM; in the test with SW480 colon cancer cells it was greater than 10 µM; in test [2], 5.24 µM; in test [3], greater than 10 µM.
With `O=C(Nc1cncc(-c2ccc3[nH]nc(-c4cc5c(-c6ccc(F)cc6)ccnc5[nH]4)c3c2)c1)C1CCC1` [Compound 49, N-(5-(3-(4-(4-Fluorophenyl)-1H-pyrrolo[2,3-b]pyridin-2-yl)-1H-indazol-5-yl)pyridin-3-yl)cyclobutanecarboxamide], the inhibition at 10 µM in test [1] came out at 10.6%; with SW480 colon cancer cells, 11.8%; in test [2], 3.2%; in test [3], 29.6%. For the same compound, the half-maximal effective concentration (EC50) (in test [1]; in the test with SW480 colon cancer cells; in test [2]; in test [3]) was greater than 10 µM throughout.
In the case of `CC(C)C(=O)Nc1cncc(-c2ccc3[nH]nc(-c4cc5c(-c6ccccc6F)ccnc5[nH]4)c3c2)c1` [Compound 65, N-(5-(3-(4-(2-Fluorophenyl)-1H-pyrrolo[2,3-b]pyridin-2-yl)-1H-indazol-5-yl)pyridin-3-yl)isobutyramide], the inhibition at 10 µM in test [1] turned out to be 30.5%; with SW480 colon cancer cells, 10.8%; in test [2], 11.7%; in test [3], 34.9%. The EC50 (in test [1]; in the test with SW480 colon cancer cells; in test [2]; in test [3]) was greater than 10 µM throughout.
Take `CC(C)Nc1cncc(-c2ccc3[nH]nc(-c4cc5c(-c6ccccc6F)ccnc5[nH]4)c3c2)c1` [Compound 68, 5-(3-(4-(2-Fluorophenyl)-1H-pyrrolo[2,3-b]pyridin-2-yl)-1H-indazol-5-yl)-N-isopropylpyridin-3-amine]: the inhibition at 10 µM in test [1] was 18.7%; in the test with SW480 colon cancer cells, 10.9%; in test [2], 0%. For the same compound, the EC50 in test [1] is greater than 10 µM; in the test with SW480 colon cancer cells, greater than 10 µM; in test [2], greater than 10 µM; in test [3], 0.384 µM.
`CC(C)CC(=O)Nc1cncc(-c2ccc3[nH]nc(-c4cc5c(-c6ccsc6)ccnc5[nH]4)c3c2)c1` [Compound 282, 3-Methyl-N-(5-(3-(4-(thiophen-3-yl)-1H-pyrrolo[2,3-b]pyridin-2-yl)-1H-indazol-5-yl)pyridin-3-yl)butanamide]: the EC50 in test [1] was found to be 2.1 µM; in the test with SW480 colon cancer cells, 6.94 µM; in test [3], 0.971 µM.
Regarding `COc1cncc(-c2ccc3[nH]nc(-c4cc5c(-c6ccco6)ccnc5[nH]4)c3c2)c1` [Compound 991, 3-(4-(Furan-2-yl)-1H-pyrrolo[2,3-b]pyridin-2-yl)-5-(5-methoxypyridin-3-yl)-1H-indazole], the inhibition at 10 µM in test [1] was found to be 7.9%; in the test with SW480 colon cancer cells, 0%. For the same compound, the EC50 in test [1] was greater than 10 µM; with SW480 colon cancer cells, greater than 10 µM; in test [3], 0.012 µM.

For the origin of these results see patent US10350199B2, “3-(1h-pyrrolo[2,3-b]pyridin-2-yl)-1h-indazoles and therapeutic uses thereof” (Samumed, LLC, priority 2015, dated 2019).
